From article PMC5442318, “Hundreds of dual-stage antimalarial molecules discovered by a functional gametocyte screen” (Nature Communications, 2017)

Columns and labels:
[1] = test system: P. falciparum stage V female gametocytes; assay: P. falciparum female gametocyte activation assay (Pf FGAA), 24 h or 48 h preincubation, Pfs25 expression readout; assay type: cell-based, Plasmodium falciparum NF54; conditions: P. falciparum female gametocytes; mean; read-out: Gametocytes mean Pf FGAA IC50
Method: P. falciparum NF54 (originally isolated from an imported malaria case in the Netherlands in the 1980s; BEI Resources, cat. no. MRA-1000) asexual-stage culture was performed as described by Trager and Jensen[37]. Cultures synchronized at the ring stage were used to start gametocyte cultures (day 0) at 1% parasitaemia and 4% haematocrit in 200 ml final volume using culture bottles (Nalgene 3110-42, Thermo Scientific). Complete culture medium (RPMI 1640 supplemented with 25 mM HEPES, 50 μg ml^−1 hypoxanthine, 2 g l^−1 NaHCO3 and 10% pooled human male type A+ serum) was totally replaced daily for 14 days without fresh erythrocyte addition. Human serum was obtained from Interstate Blood Bank, A^+ serotype; no aspirin 2 h before drawing and no antimalarials 2 weeks before drawing. To ensure a stable temperature at 37 °C, which is crucial for gametocyte production and maturation, pre-warmed medium and a slide warmer (XH-2001, Premiere) were used. Under these conditions, parasitaemia reaches a peak of asexual stages on days 4–5, and the first gametocytes are differentiated in culture on day 6. Sexual-stage development was monitored microscopically by Giemsa-stained thin blood smears at day 7 (mainly asexual stages and stages I to III gametocytes) and day 14 (stages IV and V gametocytes).
Cultures showing mainly stage V gametocytes were purified by differential sedimentation as previously reported. The gametocyte concentration was adjusted to plate 8,000 gametocytes per well (100 μl per well) in 384-well poly-D-lysine coated plates (781946, Greiner Bio-One) containing the compounds to test. […] Female gametocyte activation was then triggered by temperature drop and addition of xanthurenic acid (D120804, Sigma) as previously described. To detect female gametes, monoclonal anti-Pfs25 antibody[38] 4B7 (BEI Resources (formerly MR4), cat. no. MRA-315) conjugated to the Cy3 fluorochrome (GE Healthcare) was added to ookinete medium (RPMI 1640 supplemented with 25 mM HEPES, 50 μg ml^−1 hypoxanthine, 2 g l^−1 NaHCO3, 100 μM xanthurenic acid and 20% human serum) at a final concentration of 0.5 μg ml^−1. Activated cultures were then kept at 26 °C for 24 h protected from light, and image acquisition was performed in the Opera High-Content Screening System (PerkinElmer). Using × 10 air objective, five images per well were taken using 532 nm excitation. Images were analysed with a Columbus image data storage and analysis system (PerkinElmer) based on a script specifically designed for this assay that considers size, roundness and intensity of fluorescence of the female activated gametocytes.
Compounds were dissolved in 100% DMSO and dispensed in the 384-well plates using an Echo-CRS liquid handler. Compounds were tested in 2–3 independent experiments. […] Based on that, Z′ factor was calculated for each plate and only those ones with values higher than 0.4 were considered acceptable for data analysis.
Assay performance statistics, such as signal to background ratio, Z′ and robust 3 s.d. activity cut-off were calculated using templates in ActivityBase XE (IDBS, Guilford, Surrey, UK). Hit population analysis and visualization were conducted using Spotfire DecisionSite (Spotfire, Inc., Somerville, MA, USA). The pIC50 (−log IC50) values were obtained using the ActivityBase XE nonlinear regression function in the full curve analysis bundle.

[2] = test system: P. falciparum stages IV–V gametocytes; assay: Gametocytocidal ATP-depletion assay (gametocyte ATP bioluminescence); assay type: cell-based, Plasmodium falciparum
Method: In parallel, the set of confirmed hits from the Pf FGAA screen was cross-compared in the gametocyte ATP-depletion assay, at 2 μM single concentration (Supplementary Data 1). This assay monitors ATP levels as surrogate of gametocyte viability.
‘Viability' of mature gametocytes was determined using the gametocyte ATP bioluminiscence assay. Briefly, stages IV–V gametocyte cultures were double-purified by differential sedimentation followed by magnetic isolation. Then, parasites (50 μl per well containing 12,500 gametocytes) were added to compound pre-dispensed 384-well plates (781091, Greiner Bio-One) and incubated at 37 °C for 48 h (3% O2, 5% CO2 and 92% N2). BacTiter-Glo kit (G8231, Promega) was used to determine the ATP levels of ‘live' parasites according to the manufacturer's instructions. After reagent addition (50 μl per well), luminescence of the plates was measured using a microplate reader (HTS counter Victor, Wallac).

[3] = test system: HepG2 cells; assay: HepG2 cytotoxicity assay; assay type: cell-based; conditions: HepG2 cells; mean
Method: After incubation, plates and CellTiter-Glo Reagent (G7571, Promega) were equilibrated at room temperature for 30 min before proceeding to develop the luminescent signal. Using a Multidrop combi dispenser, 25 μl per well of the signal developer were added to the plates and after 10 min at room temperature for stabilization, plates were read on the ViewLux system (Perkin Elmer).

[4] = test system: P. falciparum asexual blood stages; conditions: TCAMS asexual blood stage data; ref 1 (Gamo, F. J. et al., Nature 465, 305-310, 2010); read-out: Pf Asexual blood stages XC50; cited from earlier work

Row | Compound | IC50 [1] | Gametocytes mean ATP inhibition at 2µM [2] | HepG2 cells mean TOX50 [3] | IC50 [4]
1 | CCCCN(CCCC)/C(=N/C(=N)NCc1ccc(Cl)c(Cl)c1)NCCCCCCN/C(=N\C(=N)NCc1ccc(Cl)c(Cl)c1)N(CCCC)CCCC [TCMDC-131821] | 2510 nM | 63.54% | 13.96 µM | 400 nM
2 | CCc1c(CCNC/C=C/C=C/CNCCc2ccc(OC)c(OC)c2CC)ccc(OC)c1OC.Cl [TCMDC-132061] | 2560 nM | 13.62% | 4.68 µM | 970 nM
3 | CCc1c(CCNCCCCCNCCc2ccc(OC)c(OC)c2CC)ccc(OC)c1OC.Cl [TCMDC-132064] | 2050 nM | 27.40% | 4.68 µM | 1110 nM
4 | CCc1c(CCNCCCCCCNCCc2ccc([N+](=O)[O-])cc2)ccc(OC)c1OC.Cl [TCMDC-132066] | 1460 nM | 24.70% | 4.57 µM | 730 nM
5 | Nc1c(Cl)cc(C(O)CNCCCCCOCCCc2ccc(O)c3ncccc23)cc1Cl.O=C(O)/C=C/C(=O)O (centres unmarked) [TCMDC-132088] | 2100 nM | 76.89% | 7.76 µM | 990 nM
6 | CN(C)Cc1cccc2nc(-c3csc(Cc4cc(Cl)ccc4OCc4ccccc4)n3)[nH]c12 [TCMDC-132174] | 2100 nM | 47.80% | 13.04 µM | 1120 nM
7 | O=C(O)C(F)(F)F.O=S(=O)(NCCN1CCCC1)c1ccc(-c2cccc(CNC3Cc4ccccc4C3)c2)cc1 [TCMDC-132215] | 2540 nM | 9.62% | 6.03 µM | 620 nM
8 | O=C(O)C(F)(F)F.O=S(=O)(NCCN1CCCC1)c1ccc(-c2ccc(CNC3Cc4ccccc4C3)cc2)s1 [TCMDC-132234] | 2270 nM | 1.19% | 5.83 µM | 590 nM

Stronger by IC50 [1], values ahead:

Row | IC50 [1] | Compound | Gametocytes mean ATP inhibition at 2µM [2] | HepG2 cells mean TOX50 [3] | IC50 [4]
9 | 900 nM | COc1cc2nc(NCCCN3CCCCC3)nc(NCc3ccccc3)c2cc1OC [TCMDC-132012] | 19.39% | 6.84 µM | 1000 nM
10 | 1300 nM | Br.CCc1c(CCNCCCCCCNCCc2ccc(Br)cc2)ccc(O)c1O [TCMDC-132044] | 6.14% | 7.96 µM | 900 nM
11 | 480 nM | CCc1c(CCNCCCCCCNC(C)Cc2ccc3c(c2CC)OCO3)ccc(OC)c1OC.Cl (centres unmarked) [TCMDC-132052] | 35.74% | 2.46 µM | 870 nM
12 | 1090 nM | Cc1c2ccncc2c(C)c2c1[nH]c1cc(Cc3ccccc3)c(O)cc12 [TCMDC-132053] | -3.89% | 1.23 µM | 150 nM
13 | 1220 nM | CCc1c(CCNCCCCCCNC(C)(C)Cc2ccc3c(c2CC)OCO3)ccc(OC)c1OC.Cl [TCMDC-132055] | 19.03% | 4.27 µM | 930 nM
14 | 1020 nM | CCc1c(CCNCCCCCCNCCc2ccc3c(c2C)OCO3)ccc2c1OCO2.Cl [TCMDC-132093] | 10.41% | 3.89 µM | 610 nM
